These are literature values, as cited in patent publication US20030013692A1, “Methods of treating neurological disorders” (priority 2001, published 2003).

Where only a bound is given, the exact number is not on record here.

The conditions of the data set: nimodipine treated subarachnoid hemorrhage (SAH) patients.

For the compound `COCCOC(=O)C1=C(C)NC(C)=C(C(=O)OC(C)C)C1c1cccc([N+](=O)[O-])c1` (stereo not shown) [nimodipine, Isopropyl (2-methoxyethyl) 1,4-dihydro-2,6-dimethyl-4-(3-nitrophenyl)-3,5-pyridine-dicarboxylate], the “concentration detected in the cerebrospinal fluid” value was at most 12.5 ng/mL.
